Results as given in US20240226067A9, “ANTI-FIBROTIC THERAPIES” (THE JOHNS HOPKINS UNIVERSITY, priority 2021, published 2024).

How the values were obtained:
[1] = tested on: CCO18CD colon fibroblasts stimulated with TGF-β; experiment: High throughput microscopy-based anti-fibrotic drug screen (α-SMA and collagen 1 expression); assay type: cell-based
Description: FIG. 1 is images of cells from high throughput microscopy-based analysis of an FDA-approved drug library for potential anti-fibrotic properties.
FIGS. 3A-3C are images of cells from high throughput microscopy-based analysis of potential drugs for anti-fibrotic properties.

[2] = tested on: key fibrosis genes (ACTA2, COL1A1, COL3A1, TGFBR1) in transplanted intestinal tissue; experiment: Subcutaneous intestinal transplant fibrosis model, qPCR of fibrosis genes; assay type: in vivo; details: mouse; one subcutaneous injection 15 mg/kg; one week after implantation; versus oral pirfenidone 100 mg/kg three times daily
Description: A 1-2 cm segment of bowel was excised from one mouse and implanted in the subcutaneous space on the neck of another mouse of the same genetic background. […] One week after tissue implantation and initiation of treatment, the segment of transplanted intestine tissue was excised to assess expression of key genes involved in fibrosis (α-SMA, ACTA2; collagen type 1, COL1A1; collagen type 3, COL3A1; TGF-β receptor 1, TGFBR1) by qPCR.

[3] = mouse, in vivo, sc, 50 mg/kg
[4] = tested on: intestinal fibroblast cells; experiment: Cell survival in the microscopy-based screen; details: at effective concentrations

Question: With Cc1ccc(=O)n(-c2ccccc2)c1 [pirfenidone] as the compound, how does the “concentration causing reduction in α-SMA and collagen production” value ([1]; TGF-β stimulated colon fibroblasts) read?
Answer: 4 mM

Question: What about the “concentration level at which induced expression of α-SMA and/or collagen was reduced (in words)” value ([1]; TGF-β stimulated intestinal fibroblasts) of the same compound?
Answer: millimolar concentrations

Question: For Clc1ccc(CSC(Cn2ccnc2)c2ccc(Cl)cc2Cl)cc1 (centres unmarked) [sulconazole, 1-[2-[(4-chlorophenyl)methylsulfanyl]-2-(2,4-dichlorophenyl)ethyl]imidazole], which “repression of fibrosis genes (ACTA2, COL1A1, COL3A1, TGFBR1)” value [2] is on record?
Answer: significantly more effective than pirfenidone

Question: And the mortality [3]?
Answer: death of mice

Question: And the “impact on cell survival” value [4]?
Answer: minimal impact on cell survival
